Entries after “also recorded” stand apart in the source; their conditions may differ.
Assays:
Pneumocystis carinii [1] = experiment: Randomized clinical trial of PCP prophylaxis (Example 8); format: in vivo, human; settings: for Relative Hazard of PCP: Cox regression / No PCP (participants) / PCP (participants): prior PCP strata
[2] = cited from earlier work
[3] = Adverse reactions and toxicity during PCP therapy (Example 3); settings: for FEV1/FVC ratio: mean±1 SD
Pneumocystis carinii [4] = experiment: Randomized trial 300 mg twice per month vs 600 mg once per month (Example 7); format: in vivo, human
Description: Five patients who developed PCP within 28 days were not evaluated. One hundred (66%) of the patients were concurrently receiving AZT, and 42 (28%) had experienced one prior episode of PCP.

[5] = Delivery efficiency, nebulizer retention and lung half-life of aerosolized pentamidine; parameters: species or system human
Description: As indicated above, Pneumocystis carinii infect the alveoli. […] It should also be understood that the amount of pentamidine deposited in the alveoli may be substantially less than the total amount aerosolized since a large portion is exhaled by the patient or is trapped on the interior surfaces of the nebulizer apparatus. […] This is true regardless of the dose size, duration of inhalation, and type of nebulizer used, Respirgard or Ultravent. […] Furthermore, even with minimization of airway deposition, there is a portion which is still deposited in the patient's airways.
The "amount nebulized" or "amount aerosolized" of the drug means the amount that actually leaves the apparatus as an aerosol, i.e., the amount placed into the apparatus less the amount retained in the reservoir and on the inner surfaces of the apparatus at the conclusion of a treatment session. "[…] of pentamidine delivered to the alveoli" refers to the amount of drug that is estimated to actually reach the alveoli.

[6] = inhaled pentamidine; cited from earlier work
Side effects (Example 6) = format: in vivo, human
[7] = human, in vivo
[8] = in vivo
[9] = eligible, PCP within 60 days, 30 mg
[10] = eligible, PCP within 60 days, 150 mg
[11] = eligible, PCP within 60 days, 300 mg, p .006 (30 vs 300 mg)
[12] = eligible, confirmed PCP within 60 days, 30 mg
[13] = eligible, confirmed PCP within 60 days, 150 mg
[14] = eligible, confirmed PCP within 60 days, 300 mg, p .002 (30 vs 300 mg)
[15] = intention to treat, all PCP, 30 mg
[16] = intention to treat, all PCP, 150 mg
[17] = intention to treat, all PCP, 300 mg, p .02 (30 vs 300 mg)
[18] = group b, 150 mg every two weeks
[19] = group c, 300 mg every four weeks

N=C(N)c1ccc(OCCCCCOc2ccc(C(=N)N)cc2)cc1 [pentamidine, p,p'-(pentamethylenedioxy)dibenzamidine]
Relative Hazard of PCP: Cox regression (Pneumocystis carinii [1]; confirmed PCP on study drug, 30 vs 300): 4.57
Relative Hazard of PCP: Cox regression (Pneumocystis carinii [1]; confirmed PCP on study drug, 30 vs. 150): 2.10
No PCP (participants) (Pneumocystis carinii [1]; [9]): 42
PCP (participants) (Pneumocystis carinii [1]; [9]): 25
No PCP (participants) (Pneumocystis carinii [1]; [10]): 51
PCP (participants) (Pneumocystis carinii [1]; [10]): 16
No PCP (participants) (Pneumocystis carinii [1]; [11]): 60
PCP (participants) (Pneumocystis carinii [1]; [11]): 14
No PCP (participants) (Pneumocystis carinii [1]; [12]): 47
PCP (participants) (Pneumocystis carinii [1]; [12]): 20
No PCP (participants) (Pneumocystis carinii [1]; [13]): 53
PCP (participants) (Pneumocystis carinii [1]; [13]): 14
No PCP (participants) (Pneumocystis carinii [1]; [14]): 66
PCP (participants) (Pneumocystis carinii [1]; [14]): 8
No PCP (participants) (Pneumocystis carinii [1]; [15]): 46
PCP (participants) (Pneumocystis carinii [1]; [15]): 33
No PCP (participants) (Pneumocystis carinii [1]; [16]): 54
PCP (participants) (Pneumocystis carinii [1]; [16]): 24
No PCP (participants) (Pneumocystis carinii [1]; [17]): 59
PCP (participants) (Pneumocystis carinii [1]; [17]): 21
Relative Hazard of PCP: Cox regression (Pneumocystis carinii [1]; intention to treat, 30 vs 300): 2.11
Relative Hazard of PCP: Cox regression (Pneumocystis carinii [1]; intention to treat, 30 vs. 150): 1.40
all cause mortality (Pneumocystis carinii [1]; prior PCP stratum): 53%
hazard of PCP by start of therapy (Pneumocystis carinii [1]; start within 3 months of prior PCP vs later, Cox model): less than half the hazard of PCP
time to PCP relapse, median (Pneumocystis carinii [1]; starting prophylaxis within 3 months of prior PCP): 240 days
time to PCP relapse, median (Pneumocystis carinii [1]; starting with a longer interval since prior episode): 143 days
patients developing severe toxicity requiring discontinuation ([2]; TMP-SMX oral/parenteral or pentamidine isethionate parenteral): approximately 50%
side effects ([2]; parenteral pentamidine): elevation of liver enzymes, hematologic disturbances with neutropenia and thrombocytopenia, fever, hypocalcemia, and hallucinations
impaired renal function ([2]; patients receiving (parenteral) pentamidine): about 25%
FEV1/FVC ratio ([3]; end of therapy): 79.9±15.8%
FEV1/FVC ratio, single treatment ([3]; first 4 patients): no different before and after a single treatment
bronchospasm / airway obstruction ([3]; in vivo): Neither clinical nor spirometric evidence of airway obstruction occurred; also recorded: Clinical bronchospasm was not seen
FEV1/FVC ratio ([3]; initial testing): 76.1±12.2%
Toxicity Req Change of Therapy, % ([3]; n = 15): 0%
attack rate of PCP at 6.38 months (Pneumocystis carinii [4]; 300 mg once per month, previous study): 18%
attack rate of PCP (Pneumocystis carinii [4]; 300 mg twice per month): 5.6%
attack rate of PCP (Pneumocystis carinii [4]; 600 mg once per month): 8.1%
patients who developed PCP (Pneumocystis carinii [4]; mean duration 10.6 months, 10 patients): 6.8%
attack rate of PCP at 6.38 months (Pneumocystis carinii [4]; this trial, p<0.01 vs 300 mg once per month): 3%
amount delivered to the alveoli ([5]; 300 mg placed in nebulizer, estimate): about 21 mg
absorbed dose ([5]; 600 mg in 6 mL, Respirgard II, 3-4 mL nebulized, estimate): 45 to 60 mg
amount delivered to the alveoli ([5]; 600 mg placed in nebulizer, estimate): about 42 mg
dose remaining in the nebulizer after inhalation ([5]; Respirgard or UltraVent, regardless of dose): approximately one third of the pentamidine dose that is placed into the nebulizer remains in the nebulizer
fraction of total dose delivered to the alveoli ([5]; estimate based on Mallinckrodt technical specifications): about 7%
half-life ([5]; human, lung, inhaled or intranasal, read-out: halflife in the lungs): 21 to 42 days
efficiency of delivery by inhalation ([5]; to alveoli, estimate): 7-10%
microscopic airway changes [6]: no microscopic airway changes have been noted
withdrawals due to toxicity (Side effects (Example 6); all groups): no withdrawals due to toxicity
Cough (Side effects (Example 6); group a, 30 mg every two weeks): 25%
Metallic Taste (Side effects (Example 6); group a, 30 mg every two weeks): 11%
Wheezing (Side effects (Example 6); group a, 30 mg every two weeks): 10%
Cough (Side effects (Example 6); [18]): 34%
Metallic Taste (Side effects (Example 6); [18]): 16%
Wheezing (Side effects (Example 6); [18]): 14%
Cough (Side effects (Example 6); [19]): 34%
Metallic Taste (Side effects (Example 6); [19]): 20%
Wheezing (Side effects (Example 6); [19]): 14%
frequent adverse effect observed clinically [7]: transient airway irritation
adverse systemic reactions (renal, liver, hematologic, hypoglycemia, hypotension) [8]: No adverse systemic reactions
coughing with larger particles [8]: most subjects began coughing within a few breaths

From US5364615A (priority 1992, dated 1994)
